Test results: article PMC9274761, “Effects of Structurally Different HDAC Inhibitors against Trypanosoma cruzi, Leishmania, and Schistosoma mansoni” (ACS Infectious Diseases, 2022)
“And” between values parts separate entries of the source, which are not always exact repeats. Identical values can stand only once.

How the values were obtained:
HDAC4 = HDAC4 (Homo sapiens, UniProt P56524); test: HDAC4 protease-coupled fluorescence (AMC) inhibition assay; type: biochemical; conditions: hr enzyme, class IIa substrate Boc-Lys(trifluoroacetyl)-AMC; read-out: IC50 against HDAC4
Sequence of HDAC4 (P56524 whole entry): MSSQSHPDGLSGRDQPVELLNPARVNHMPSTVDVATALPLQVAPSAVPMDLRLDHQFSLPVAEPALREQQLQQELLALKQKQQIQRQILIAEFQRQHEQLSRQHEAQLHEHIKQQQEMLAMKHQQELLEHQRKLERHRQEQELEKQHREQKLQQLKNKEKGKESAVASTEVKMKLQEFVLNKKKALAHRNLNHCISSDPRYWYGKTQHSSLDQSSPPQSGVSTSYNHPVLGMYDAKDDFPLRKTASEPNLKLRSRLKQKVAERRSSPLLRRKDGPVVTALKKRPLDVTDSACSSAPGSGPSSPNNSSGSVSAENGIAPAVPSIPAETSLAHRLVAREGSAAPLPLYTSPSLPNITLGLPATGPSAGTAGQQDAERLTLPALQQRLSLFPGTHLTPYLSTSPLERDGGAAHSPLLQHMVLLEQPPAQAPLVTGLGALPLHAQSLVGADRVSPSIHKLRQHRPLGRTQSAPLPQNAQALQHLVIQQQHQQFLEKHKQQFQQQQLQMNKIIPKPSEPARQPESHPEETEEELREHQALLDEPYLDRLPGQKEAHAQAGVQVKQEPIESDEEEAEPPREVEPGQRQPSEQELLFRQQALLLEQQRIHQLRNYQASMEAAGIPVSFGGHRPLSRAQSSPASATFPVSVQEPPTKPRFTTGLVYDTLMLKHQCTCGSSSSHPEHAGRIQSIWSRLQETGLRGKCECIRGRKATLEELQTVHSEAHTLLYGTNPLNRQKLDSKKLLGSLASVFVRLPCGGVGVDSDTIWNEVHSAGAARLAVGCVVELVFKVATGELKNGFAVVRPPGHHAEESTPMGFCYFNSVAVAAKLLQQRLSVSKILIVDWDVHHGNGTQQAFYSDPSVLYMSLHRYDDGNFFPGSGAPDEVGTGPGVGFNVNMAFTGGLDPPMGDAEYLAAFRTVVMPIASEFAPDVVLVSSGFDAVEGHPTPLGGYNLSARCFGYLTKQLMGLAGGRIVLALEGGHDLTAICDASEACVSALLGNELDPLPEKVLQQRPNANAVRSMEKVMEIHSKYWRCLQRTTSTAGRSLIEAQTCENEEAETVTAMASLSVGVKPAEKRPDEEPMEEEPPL
Excerpt: (§1) The new hydroxamates 2 and 6 were screened and profiled via a protease-coupled assay in which the quantification of HDAC enzyme activity is based on the formation of a free fluorescent group, the 7-amino-4-methyl coumarin (AMC).[42] […] After deacetylation by HDACs, the de(trifluoro)acetylated AMC–peptides were sensitive toward lysine peptidase and free fluorogenic AMC was generated and quantified.[42]
(§2) To gain insights into its inhibition profile for human HDACs, we tested 3 against hrHDACs 1–6 and 8 following the above procedure (Table 1).
(§3) Individual IC50 values for each HDAC isozyme were measured with the homogeneous fluorescence release HDAC assay.[42]

HDAC5 = HDAC5 (Homo sapiens, UniProt Q9UQL6); test: HDAC5 protease-coupled fluorescence (AMC) inhibition assay; type: biochemical; conditions: for IC50: hr enzyme, class IIa substrate Boc-Lys(trifluoroacetyl)-AMC, read-out: IC50 against HDAC5
Sequence of HDAC5 (Q9UQL6 whole entry): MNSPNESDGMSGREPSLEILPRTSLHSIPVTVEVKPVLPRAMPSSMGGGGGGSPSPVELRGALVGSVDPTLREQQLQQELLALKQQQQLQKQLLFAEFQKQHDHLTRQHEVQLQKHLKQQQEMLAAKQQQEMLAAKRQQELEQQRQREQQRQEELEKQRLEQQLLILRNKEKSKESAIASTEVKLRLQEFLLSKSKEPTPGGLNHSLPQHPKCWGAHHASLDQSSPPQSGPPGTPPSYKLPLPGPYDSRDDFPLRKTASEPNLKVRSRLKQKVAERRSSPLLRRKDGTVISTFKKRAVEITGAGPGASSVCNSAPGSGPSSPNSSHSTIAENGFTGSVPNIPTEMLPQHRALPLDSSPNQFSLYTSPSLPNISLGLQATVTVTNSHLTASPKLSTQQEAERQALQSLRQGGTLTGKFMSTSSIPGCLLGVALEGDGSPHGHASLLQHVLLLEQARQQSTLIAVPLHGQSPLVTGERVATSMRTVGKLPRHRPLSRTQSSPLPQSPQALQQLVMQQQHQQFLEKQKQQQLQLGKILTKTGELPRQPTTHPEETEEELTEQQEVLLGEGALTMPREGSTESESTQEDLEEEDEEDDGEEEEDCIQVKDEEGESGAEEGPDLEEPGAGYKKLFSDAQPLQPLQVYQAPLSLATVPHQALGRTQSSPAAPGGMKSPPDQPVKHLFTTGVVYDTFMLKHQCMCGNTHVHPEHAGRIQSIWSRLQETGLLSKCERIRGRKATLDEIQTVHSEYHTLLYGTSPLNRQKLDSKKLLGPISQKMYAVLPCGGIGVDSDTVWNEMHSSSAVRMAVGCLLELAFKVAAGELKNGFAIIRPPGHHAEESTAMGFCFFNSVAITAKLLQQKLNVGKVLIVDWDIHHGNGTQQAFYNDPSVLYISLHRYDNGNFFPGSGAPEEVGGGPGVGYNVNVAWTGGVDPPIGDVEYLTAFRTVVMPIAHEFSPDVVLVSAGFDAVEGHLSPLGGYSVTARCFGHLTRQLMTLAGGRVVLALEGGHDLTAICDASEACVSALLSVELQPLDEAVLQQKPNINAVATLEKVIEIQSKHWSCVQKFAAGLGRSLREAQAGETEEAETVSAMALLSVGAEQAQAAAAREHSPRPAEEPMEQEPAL
Excerpt: as §1, §2, §3

HDAC8 = molecular target: T1, HDAC8 (Homo sapiens, UniProt Q9BY41); test: HDAC8 protease-coupled fluorescence (AMC) inhibition assay; type: biochemical; conditions: hr enzyme, substrate RHK(Ac)K(Ac)AMC; read-out: IC50 against HDAC8
T1 sequence (Q9BY41 1-377): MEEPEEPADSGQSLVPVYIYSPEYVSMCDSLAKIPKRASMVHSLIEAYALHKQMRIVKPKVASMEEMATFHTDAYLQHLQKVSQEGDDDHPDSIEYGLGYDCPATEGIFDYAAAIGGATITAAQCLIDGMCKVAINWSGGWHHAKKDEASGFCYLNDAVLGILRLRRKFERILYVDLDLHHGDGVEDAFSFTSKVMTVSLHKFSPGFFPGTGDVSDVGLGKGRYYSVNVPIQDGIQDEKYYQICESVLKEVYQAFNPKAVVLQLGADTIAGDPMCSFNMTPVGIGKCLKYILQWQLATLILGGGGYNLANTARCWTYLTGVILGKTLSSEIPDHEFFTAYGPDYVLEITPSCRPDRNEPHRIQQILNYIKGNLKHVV
Excerpt: as §1, §2, §3

[1] = test system: L. amazonensis promastigotes; test: Resazurin reduction assay, L. amazonensis promastigotes; type: cell-based; conditions: Leishmania amazonensis, read-out: percentage of inhibition, L. amazonensis promastigotes
in vitro = conditions: mouse, noninfected L929 fibroblast cells
HDAC9 = HDAC9 (Homo sapiens, UniProt Q9UKV0); test: HDAC9 protease-coupled fluorescence (AMC) inhibition assay; type: biochemical; conditions: hr enzyme, class IIa substrate; read-out: IC50 against HDAC9
Sequence of HDAC9 (Q9UKV0 whole entry): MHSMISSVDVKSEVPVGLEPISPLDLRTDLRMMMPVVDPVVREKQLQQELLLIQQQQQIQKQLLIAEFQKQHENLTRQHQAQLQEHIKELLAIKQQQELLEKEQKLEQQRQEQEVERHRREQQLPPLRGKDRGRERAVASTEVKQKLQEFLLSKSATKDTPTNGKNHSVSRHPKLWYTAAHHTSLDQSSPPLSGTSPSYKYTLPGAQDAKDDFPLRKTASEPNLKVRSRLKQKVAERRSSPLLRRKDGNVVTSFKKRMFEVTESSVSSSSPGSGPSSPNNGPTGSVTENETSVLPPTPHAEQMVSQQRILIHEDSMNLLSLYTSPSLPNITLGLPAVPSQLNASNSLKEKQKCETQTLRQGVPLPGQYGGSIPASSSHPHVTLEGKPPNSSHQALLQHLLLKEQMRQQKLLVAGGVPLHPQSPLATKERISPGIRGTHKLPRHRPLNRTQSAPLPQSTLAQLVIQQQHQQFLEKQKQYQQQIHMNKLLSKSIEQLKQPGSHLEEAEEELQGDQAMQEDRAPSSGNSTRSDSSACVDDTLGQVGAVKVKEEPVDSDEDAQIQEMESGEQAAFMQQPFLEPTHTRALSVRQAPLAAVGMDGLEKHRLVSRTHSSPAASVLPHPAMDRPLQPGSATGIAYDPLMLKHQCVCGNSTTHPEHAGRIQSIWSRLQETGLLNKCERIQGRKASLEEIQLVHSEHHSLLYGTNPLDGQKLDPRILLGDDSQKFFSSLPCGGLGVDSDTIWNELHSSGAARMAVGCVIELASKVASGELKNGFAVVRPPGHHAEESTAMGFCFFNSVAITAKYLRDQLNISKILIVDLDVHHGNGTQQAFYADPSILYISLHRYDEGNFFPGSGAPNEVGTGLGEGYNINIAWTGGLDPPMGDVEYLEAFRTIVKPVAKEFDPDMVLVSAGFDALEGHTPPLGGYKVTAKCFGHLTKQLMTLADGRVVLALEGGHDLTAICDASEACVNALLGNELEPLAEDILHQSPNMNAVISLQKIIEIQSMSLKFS
Description: as §1, §3

HDAC11 = HDAC11 (Homo sapiens, UniProt Q96DB2); test: HDAC11 protease-coupled fluorescence (AMC) inhibition assay; type: biochemical; conditions: hr enzyme; read-out: IC50 against HDAC11
Description: as §1, §3

[2] = test system: L. amazonensis amastigotes in primary mouse macrophages; conditions: 10 μM, 3 days, toxic = toxic for macrophages
[3] = test system: newly transformed schistosomula (NTS); test: Phenotypic screening on newly transformed schistosomula (NTS); type: cell-based, Schistosoma mansoni; conditions: for IC50: Schistosoma mansoni, 72 h, read-out: IC50, viability of NTS
HDAC7 = HDAC7 (Homo sapiens, UniProt Q8WUI4); test: HDAC7 protease-coupled fluorescence (AMC) inhibition assay; type: biochemical; conditions: hr enzyme, class IIa substrate; read-out: IC50 against HDAC7
Description: as §1, §3

[4] = test system: T. cruzi amastigotes and trypomastigotes; test: T. cruzi infection assay in L929 cells (beta-galactosidase Tulahuen strain); type: cell-based, Trypanosoma cruzi; conditions: infected L929 cells, 96 h; for EC50, growth of T. cruzi amastigotes and trypomastigotes: mean ± SD
HDAC1 = HDAC1 (Homo sapiens, UniProt Q13547); test: HDAC1 protease-coupled fluorescence (AMC) inhibition assay; type: biochemical; conditions: hr enzyme, 10-dose, 3-fold dilution from 50 μM (3: from 300 μM); read-out: IC50 against HDAC1
Sequence of HDAC1 (Q13547 whole entry): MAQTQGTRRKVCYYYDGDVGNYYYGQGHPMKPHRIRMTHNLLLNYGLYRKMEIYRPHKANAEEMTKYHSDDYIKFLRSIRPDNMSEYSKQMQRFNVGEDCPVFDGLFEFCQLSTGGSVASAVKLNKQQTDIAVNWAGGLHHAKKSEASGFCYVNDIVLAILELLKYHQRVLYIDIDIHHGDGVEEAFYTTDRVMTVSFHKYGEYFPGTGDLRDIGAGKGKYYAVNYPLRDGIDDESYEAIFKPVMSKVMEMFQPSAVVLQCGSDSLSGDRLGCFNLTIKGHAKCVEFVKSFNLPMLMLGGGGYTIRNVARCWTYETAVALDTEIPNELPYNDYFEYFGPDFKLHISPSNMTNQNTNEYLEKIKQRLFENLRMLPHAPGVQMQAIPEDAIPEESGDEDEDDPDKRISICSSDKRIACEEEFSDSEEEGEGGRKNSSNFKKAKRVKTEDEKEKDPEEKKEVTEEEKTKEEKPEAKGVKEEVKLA
Excerpt: as §1, §2, §3

HDAC10 = HDAC10 (Homo sapiens, UniProt Q969S8); test: HDAC10 protease-coupled fluorescence (AMC) inhibition assay; type: biochemical; conditions: hr enzyme; read-out: IC50 against HDAC10
Description: as §1, §3

HDAC2 = HDAC2 (Homo sapiens, UniProt Q92769); test: HDAC2 protease-coupled fluorescence (AMC) inhibition assay; type: biochemical; conditions: hr enzyme, 10-dose, 3-fold dilution from 50 μM (3: from 300 μM); read-out: IC50 against HDAC2
Sequence of HDAC2 (Q92769 whole entry): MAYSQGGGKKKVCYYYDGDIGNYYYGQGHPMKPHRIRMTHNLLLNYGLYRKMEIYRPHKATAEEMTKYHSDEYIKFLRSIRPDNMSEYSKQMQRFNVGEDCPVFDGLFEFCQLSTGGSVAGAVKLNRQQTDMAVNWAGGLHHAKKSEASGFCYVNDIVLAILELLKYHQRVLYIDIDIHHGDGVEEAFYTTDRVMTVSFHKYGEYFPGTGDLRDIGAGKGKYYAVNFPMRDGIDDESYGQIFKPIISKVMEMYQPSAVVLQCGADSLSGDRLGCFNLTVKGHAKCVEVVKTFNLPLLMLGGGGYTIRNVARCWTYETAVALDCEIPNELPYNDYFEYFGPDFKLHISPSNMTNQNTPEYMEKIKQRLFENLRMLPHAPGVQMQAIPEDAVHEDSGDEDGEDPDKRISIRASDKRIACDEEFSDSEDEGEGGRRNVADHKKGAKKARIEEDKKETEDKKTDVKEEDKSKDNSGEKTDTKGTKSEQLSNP
Excerpt: as §1, §2, §3

HDAC3 = HDAC3 (Homo sapiens, UniProt O15379); test: HDAC3 protease-coupled fluorescence (AMC) inhibition assay; type: biochemical; conditions: hr enzyme, 10-dose, 3-fold dilution from 50 μM (3: from 300 μM); read-out: IC50 against HDAC3
Sequence of HDAC3 (O15379 whole entry): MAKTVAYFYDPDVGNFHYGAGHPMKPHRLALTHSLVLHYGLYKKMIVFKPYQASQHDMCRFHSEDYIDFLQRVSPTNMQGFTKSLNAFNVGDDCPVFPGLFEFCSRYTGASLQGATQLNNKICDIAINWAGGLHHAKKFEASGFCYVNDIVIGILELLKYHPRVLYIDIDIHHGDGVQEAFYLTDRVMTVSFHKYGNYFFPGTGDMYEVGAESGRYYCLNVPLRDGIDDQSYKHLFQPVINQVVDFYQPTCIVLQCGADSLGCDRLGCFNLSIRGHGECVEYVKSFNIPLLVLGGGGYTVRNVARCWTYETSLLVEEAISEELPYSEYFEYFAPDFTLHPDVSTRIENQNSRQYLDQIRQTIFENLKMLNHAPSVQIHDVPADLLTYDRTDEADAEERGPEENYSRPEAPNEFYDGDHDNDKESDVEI
Sequence of HDAC3 (Q9Y618 395-489 partner limits assumed): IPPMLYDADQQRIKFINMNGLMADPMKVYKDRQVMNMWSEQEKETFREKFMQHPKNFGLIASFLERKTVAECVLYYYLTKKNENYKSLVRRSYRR
Excerpt: as §1, §2, §3

[5] = test system: L. donovani promastigotes; test: Resazurin reduction assay, L. donovani promastigotes; type: cell-based; conditions: Leishmania donovani, read-out: percentage of inhibition, L. donovani promastigotes
[6] = test system: L. donovani axenic amastigotes; test: Resazurin reduction assay, L. donovani axenic amastigotes; type: cell-based; conditions: Leishmania donovani, read-out: percentage of inhibition, L. donovani axenic amastigotes
[7] = Trypanosoma cruzi, read-out: percentage of T. cruzi growth inhibition
[8] = Trypanosoma cruzi, toxic = L929 death, read-out: percentage of T. cruzi growth inhibition

SMILES | IC50 (HDAC4) [µM] | IC50 (HDAC5) [µM] | IC50 (HDAC8) [µM] | inhibition at 4 µM [1] [%] | inhibition at 20 µM [1] [%] | CC50 at 96 h (in vitro) [µM] | IC50 (HDAC9) [µM] | IC50 (HDAC11) [µM] | HCA outcome against intramacrophagic L. amazonensis amastigotes [2] | percentage of NTS activity, 72 h ([3]; 10 μM) [%] | percentage of NTS activity, 72 h ([3]; 20 μM) | IC50 [3] [µM] | IC50 (HDAC7) [µM] | percentage of T. cruzi growth inhibition ([4]; 40 μM, toxic = L929 death) | percentage of T. cruzi growth inhibition ([4]; 80 μM, toxic = L929 death) | percentage of T. cruzi growth inhibition ([4]; 160 μM, toxic = L929 death) | inhibition at 1.25 µM [4, 7] [%] | inhibition at 2.5 µM [4, 8] [%] | inhibition at 5 µM [4, 8] [%] | EC50, growth of T. cruzi amastigotes and trypomastigotes [4] | further results
O=C(/C=C/c1ccc(CSc2nc(Cl)cc(-c3ccccc3)n2)cc1)NO [Compound 2, 3-(4-(((4-Chloro-6-phenylpyrimidin-2-yl)thio)methyl)phenyl)-N-hydroxy Acrylamide] | 17.3 | 22.9 | 2.22 | 11.3 ± 1.7 | 83.3 ± 1.8 | 20 | > 50 | 2.31 | toxic | 39.7 ± 0.9 | 70% and 67.31 ± 2.9% | 12.9 | > 50 | toxic | toxic | toxic | 0 | 0 | 0 | inactive | inhibition at 10 µM ([4]; Trypanosoma cruzi, 10 μM, toxic = L929 death, read-out: percentage of T. cruzi growth inhibition): 0%; inhibition at 20 µM ([4]; Trypanosoma cruzi, 20 μM, toxic = L929 death, read-out: percentage of T. cruzi growth inhibition): 3%; IC50 (HDAC1): 1.68 µM; IC50 (HDAC10): 2.8 µM; IC50 (HDAC2): 4.11 µM; IC50 (HDAC3): 0.53 µM; inhibition at 0.8 µM [5]: 1.1 ± 2%; inhibition at 4 µM [5]: 2.5 ± 1.4%; inhibition at 20 µM [5]: 74.8 ± 2.5%; inhibition at 0.8 µM [6]: 16.4 ± 18.6%; inhibition at 4 µM [6]: 7.8 ± 1.1%; inhibition at 20 µM [6]: 60.2 ± 1.4%
CN(C)Cc1ccc(S(=O)(=O)n2ccc3cc(/C=C/C(=O)NO)ccc32)cc1 [Compound 6, 3-(1-((4-((Dimethylamino)methyl)phenyl)sulfonyl)-1H-indol-5-yl)-N-hydroxy Acrylamide] | 16.7 | 3.43 | 1.87 | 9.2 ± 3.4 | 60.1 ± 1.7 | 5 | 31.1 | 4.87 | toxic | 20.9 ± 0.9 | 22.8 ± 1.0% | > 20 | > 50 | toxic | toxic | toxic | 0 | 0 | 3 | inactive | fold more potent against HDAC5 than against HDAC4 (HDAC5; ratio of IC50 HDAC4 / HDAC5): 5 fold; percentage of T. cruzi growth inhibition ([4]; 10 μM, toxic = L929 death): toxic; percentage of T. cruzi growth inhibition ([4]; 20 μM, toxic = L929 death): toxic; IC50 (HDAC1): 2.07 µM; IC50 (HDAC10): 2.87 µM; IC50 (HDAC2): 3.49 µM; IC50 (HDAC3): 0.38 µM; inhibition at 0.8 µM [5]: 7.9 ± 7.5%; inhibition at 4 µM [5]: 6.9 ± 8.7%; inhibition at 20 µM [5]: 8.6 ± 1.3%; inhibition at 0.8 µM [6]: 39.9 ± 2.1%; inhibition at 4 µM [6]: 0.1 ± 0.8%; inhibition at 20 µM [6]: 39.6 ± 5.5%
